From patent US20260356835A1, “BICYCLIC HETEROARYL COMPOUNDS” (QuantX Biosciences US, Inc., priority 2023, published 2026)
pIC50: −log10 of the molar value.

Tests used:
[1] = molecular target: T1, N-his8-TEV-hPARG (389-976) (Homo sapiens, UniProt Q86W56); experiment: PARG Biochemical Enzymatic Assay (PARG inhibition HTRF assay); conditions: 62.5 pM PARG, 5 nM Biotin-Parylated PARP1 substrate, 60 minutes preincubation, 10 minutes reaction at 23 °C
T1 construct: N-his8-TEV-hPARG (389-976); His8 (N); TEV protease cleavage site (N); made in house; host or cells: E. coli BL21(DE3)
T1 sequence (Q86W56 389-976): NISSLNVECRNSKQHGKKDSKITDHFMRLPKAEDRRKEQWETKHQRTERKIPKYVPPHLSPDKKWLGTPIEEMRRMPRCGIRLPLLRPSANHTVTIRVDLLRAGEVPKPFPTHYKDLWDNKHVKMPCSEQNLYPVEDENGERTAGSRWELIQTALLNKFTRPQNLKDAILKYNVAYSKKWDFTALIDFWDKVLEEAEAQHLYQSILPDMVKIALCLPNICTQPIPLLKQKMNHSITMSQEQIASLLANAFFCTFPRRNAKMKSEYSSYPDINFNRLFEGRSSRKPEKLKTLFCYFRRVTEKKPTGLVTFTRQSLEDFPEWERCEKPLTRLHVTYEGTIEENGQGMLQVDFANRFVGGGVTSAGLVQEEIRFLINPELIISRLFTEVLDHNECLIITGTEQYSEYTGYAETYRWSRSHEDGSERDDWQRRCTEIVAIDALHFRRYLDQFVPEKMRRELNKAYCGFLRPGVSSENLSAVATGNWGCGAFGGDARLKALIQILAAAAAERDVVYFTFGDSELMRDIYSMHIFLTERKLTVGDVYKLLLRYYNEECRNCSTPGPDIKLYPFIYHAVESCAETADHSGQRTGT
Description: PARG Biochemical Enzymatic Assay
TEV-His8-PolyADP-Ribose Polymerase 1 (379-1014) (PARP1) and N-his8-TEV-hPARG (389-976) were used to transform BL21(DE3) competent cells followed by growth for 1 hour at 37 °C and plating on Kanamycin resistant agar plates. A single colony was then inoculated into 1 ml of Luria Broth and expansion into a 1 liter scale for growth at 37 °C for 3 hours. Expression was induced via 0.2 mM IPTG induction for 20 hours at 16 °C in BL21(DE3) E. coli. Purification was then performed using a Nickel column, size exclusion chromatography and HPLC analysis.
For substrate preparation, […] nicked DNA and 2 μM PARP1 protein were mixed for 10 minutes at 25 °C 10 μM biotin-NAD+ and 100 μM NAD+ were then added and incubated for 60 minutes at 30 °C to yield PARylated PARP1 substrate.
For compound screening, compounds were serially diluted to a 3× final concentration in assay buffer (Tris pH7.5 50 mM, KCl 50 mM, Tween-20 0.01%, BSA 0.1 mg/ml, EDTA 3 mM, EGTA 0.4 mM, DTT 1 mM) containing 1% DMSO. A top concentration of 1.5 μM for a 10-point dose response curve using a 1:3 dilution curve was used. 2.5×PARG (156.25 pM working concentration, 62.5 pM final concentration) was prepared in assay buffer and 4 ul added to a 384 well assay plate containing 2 μl of serially diluted compound. The plate was then centrifuged for 10 seconds and incubated for 60 minutes at 23 °C. 4 μl of 2.5× Biotin-Parylated PARP1 (12.5 nM working concentration, 5 nM final concentration) was then added to the plate and incubated for 10 minutes at 23 °C. 4 μl of […] Detection reagent containing 0.44 μg/ml of Streptavidin-Europium cryptate and 4 μg/ml of anti-6His-XL665 monoclonal antibody was added to the plate and incubated for 60 minutes at 23 °C. The Homogeneous Time Resolved Fluorescent (HTRF) signal was then measured on an Envision plate reader using and excitation wavelength of 337 nm and emission wavelengths of 615 nm and 665 nm. Normalized percent inhibition was then calculated using the following equation: % Inhibition normalized=(compound signal-min signal)/(max signal-min signal)*100%, where Maximum signal was substrate only wells and Minimum signal was enzyme and substrate well. IC50 was calculated by fitting % Inhibition values and log of compound concentrations to nonlinear regression (log(inhibitor) vs. response—Variable slope(four parameters)) with GraphPad 9.4.1
For biochemical activity, bracket is denoted as: A<100 nM; 100 nM<B<500 nM; C>500 nM

Kuramochi cells = experiment: Cellular Viability Assay (5 day Kuramochi cell viability, CellTiter-Glo); assay type: cell-based; conditions: 5 days, 37 °C, growth inhibition relative to Day 0 (T0) and DMSO
Description: Kuramochi cells were seeded at a density of 1000 cells per well in a 384-well, white, sterile, clear bottom plate, using a Multidrop liquid dispenser and incubated for 24 hours at 37 °C in a 5% CO2 humidified environment. 24 hours later, compounds were added starting at a top dose of 10 μM for a 9-point dose response curve at a 1:3 dilution using an iDOT HT liquid handler and incubated for 5 days at 37 °C in a 5% CO2 humidified environment. After 5 days and at Day 0, plates were incubated at room temperature for 30 minutes followed by the addition of 30 μl of CellTiter-Glo Reagent. Plates were then mixed for 10 minutes on an orbital shaker followed by incubation at room temperature for 20 minutes. Luminescence was then read using the Envision plate reader. Percent Growth Inhibition was then calculated using the following equation: Percent Growth Inhibition normalized=100−(compound signal−T0)/(max signal−T0)*100%, where Max Signal refers to the DMSO only treated cells and T0 refers to the Day0 viability measurement. Growth Inhibition 50 was then calculated using the following equation: Y=Bottom+(Top−Bottom)/(1+10^((Log IC50−X)*hillslope)).
For cell activity, bracket is denoted as: A<1 uM; 1 uM<B<5 uM; C>5 uM.

| pIC50 [1] | Structure (SMILES) | pIC50 (Kuramochi cells) |
| --- | --- | --- |
| > 7.00 | N#CC1(c2nnc(-c3cnn4c(N5CCC6(CC5)COC6)cc(S(=O)(=O)NC5(C(F)F)CC5)cc34)s2)CC1 [Example 23, 3-[5-(1-cyanocyclopropyl)-1,3,4-thiadiazol-2-yl]-N-[1-(difluoromethyl)cyclopropyl]-7-(2-oxa-7-azaspiro[3.5]nonan-7-yl)pyrazolo[1,5-a]pyridine-5-sulfonamide] | > 6.00 |
| > 7.00 | O=S(=O)(NC1(C(F)F)CC1)c1cc(N2CCC3(CC2)COC3)n2ncc(-c3nnc(C(F)F)s3)c2c1 [Example 10, 3-(5-(difluoromethyl)-1,3,4-thiadiazol-2-yl)-N-(1-(difluoromethyl)cyclopropyl)-7-(2-oxa-7-azaspiro[3.5]nonan-7-yl)pyrazolo[1,5-a]pyridine-5-sulfonamide] | > 6.00 |
| > 7.00 | Cc1nnc(-c2cnn3c(N4CCC5(CC4)COC5)cc(S(=O)(=O)NC4(C)CC4)cc23)s1 [Example 7, 3-(5-methyl-1,3,4-thiadiazol-2-yl)-N-(1-methylcyclopropyl)-7-(2-oxa-7-azaspiro[3.5]nonan-7-yl)pyrazolo[1,5-a]pyridine-5-sulfonamide] | > 6.00 |
